Assay results reported in PubChem BioAssay (NCI).
“And” between values parts separate entries of the source, which are not always exact repeats. Identical values can stand only once.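 Cultured in 96-well plates, cells were exposed to test compound for 48 hours across five concentrations. GI50: concentration for 50% inhibition of growth. TGI is the concentration that stops growth completely.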

Experiments:
Experiment in all cases: DTP human tumour cell line panel, 48 h
EKVX NSCLC = test system: EKVX NSCLC
OVCAR-3 ovarian = test system: OVCAR-3 ovarian
PC-3 prostate = test system: PC-3 prostate
NCI-H226 lung = test system: NCI-H226 lung
MALME-3M melanoma = test system: MALME-3M melanoma
HS 578T breast = test system: HS 578T breast
IGROV1 ovarian = test system: IGROV1 ovarian
NCI/ADR-RES ovarian = test system: NCI/ADR-RES ovarian
UACC-257 melanoma = test system: UACC-257 melanoma
SK-OV-3 ovarian = test system: SK-OV-3 ovarian

SMILES	GI50 (EKVX NSCLC)	TGI (EKVX NSCLC)	GI50 (OVCAR-3 ovarian)	TGI (OVCAR-3 ovarian)	GI50 (PC-3 prostate)	TGI (PC-3 prostate) [µM]	GI50 (NCI-H226 lung)	TGI (NCI-H226 lung)	GI50 (MALME-3M melanoma)	TGI (MALME-3M melanoma)	GI50 (HS 578T breast)	TGI (HS 578T breast) [µM]	GI50 (IGROV1 ovarian)	TGI (IGROV1 ovarian)	GI50 (NCI/ADR-RES ovarian)	TGI (NCI/ADR-RES ovarian)	GI50 (UACC-257 melanoma)	TGI (UACC-257 melanoma)	GI50 (SK-OV-3 ovarian)	TGI (SK-OV-3 ovarian)
Cn1nccc1Nc1nccc(-c2ccn([C@H](CO)c3ccc(Cl)c(F)c3)c(=O)c2)n1	22.8 µM	> 100 µM	37500 nM	> 100 µM	43600 nM	> 100	34.8 µM	> 100 µM	28.9 nM	0.307 µM	30800 nM	> 100	22900 nM	> 100 µM	> 100000 nM	> 100 µM	0.158 µM	> 100 µM	47.6 µM	> 100 µM
O=C1C=C[C@H](O)[C@@]2(CO)O[C@@H]12	9.69 µM	49.9 µM	3310 nM	10.7 µM	16300 nM	39.5	17.3 µM	50.7 µM	2530 nM	9.32 µM	30600 nM	> 83.6	10100 nM	29.8 µM	16600 nM	45.8 µM	9.25 µM	23.6 µM	28.4 µM	> 96.1 µM
COC1N(C2CC(O)C(CO)O2)C(=O)NC(=O)C1(F)Br (stereo not given)	19.9 µM	50 µM and > 100 µM	> 50000 nM	> 100 µM	–	> 100	> 88.3 µM	> 100 µM	35100 nM	50 µM and > 100 µM	–	> 95.5	> 50000 nM	> 100 µM	–	> 100 µM	42.8 µM	50 µM and > 100 µM	99.4 µM	> 100 µM
Nc1ncc(Cc2ccc3c(c2)OCO3)c(N)n1	–	> 100 µM	–	> 100 µM	–	> 100	–	> 100 µM	–	> 100 µM	–	> 100	–	> 100 µM	–	> 100 µM	–	> 100 µM	–	> 100 µM
Cc1ccc(O)cc1Nc1ccnc2ccc(S(C)(=O)=O)cc12	11.9 µM	> 25 µM	4820 nM	> 22.8 µM	4200 nM	> 25	5.05 µM	> 23.6 µM	892 nM	9.35 µM	420 nM	4.25	478 nM	2.12 µM	15900 nM	> 25 µM	0.957 µM	> 25 µM	3.22 µM	> 25 µM
COc1ccc2c(c1)c(-c1nc(-c3c[nH]c4ncccc34)cs1)cn2CCCN1CCOCC1	3.01 µM	16.8 µM	2570 nM	7.93 µM	2480 nM	8.68	3.1 µM	15.9 µM	1390 nM	3.14 µM	2080 nM	6.92	2090 nM	8.69 µM	3020 nM	11.3 µM	2.04 µM	3.81 µM	2.83 µM	8.28 µM
OC1(c2ccc(Cl)c(C(F)(F)F)c2)CCN(CCCC(c2ccc(F)cc2)c2ccc(F)cc2)CC1	1.47 µM	6.2 µM	888 nM	1.63 µM	857 nM	2.1	0.857 µM	1.81 µM	934 nM	1.74 µM	857 nM	1.93	975 nM	2.05 µM	863 nM	1.77 µM	0.826 µM	1.51 µM	1.31 µM	3.17 µM
O=C(OCc1ccc2c(Br)cc(Br)c(O)c2n1)c1cc2ccccc2[nH]1	1.46 µM	3 µM	281 nM	0.921 µM	965 nM	2.68	1.42 µM	3.11 µM	1380 nM	2.77 µM	1240 nM	3.87	660 nM	1.91 µM	1630 nM	7.59 µM	1.36 µM	3.38 µM	6.03 µM	18.6 µM
Nc1nc2c(c3cnccc13)C(c1ccc(Cl)c(Cl)c1)Cc1cnccc1-2 (stereo not given)	0.971 µM	17.5 µM	382 nM	5.86 µM	544 nM	12.8	1.23 µM	3.94 µM	915 nM	18.6 µM	818 nM	22	1850 nM	17.8 µM	430 nM	7.69 µM	14.8 µM	29.1 µM	0.463 µM	10.8 µM
Cc1cccc(NC(=O)c2sc3nc4c(cc3c2N)C(=O)CCC4)c1	–	–	257 nM	1.18 µM	397 nM	> 48.1	5.8 µM	> 100 µM	311 nM	16.9 µM	291 nM	12.9	680 nM	> 60.8 µM	259 nM	> 49.8 µM	–	> 100 µM	0.317 µM	> 100 µM
O=C(Nc1ccc(N=C=S)cc1Cl)c1cc(Br)cc(Br)c1O	–	–	–	> 100 µM	–	54.5	–	41.5 µM	–	> 100 µM	–	69.4	–	39.8 µM	–	58 µM	–	48.9 µM	–	> 100 µM
O=C1Oc2ccccc2C(=O)/C1=C1/C=C(c2ccccc2)SS1	–	> 100 µM	–	> 100 µM	–	> 100	–	> 100 µM	–	> 100 µM	–	> 100	–	> 100 µM	–	> 100 µM	–	> 100 µM	–	> 100 µM
CC(Br)C(=O)NC(CO)C(=O)O (stereo not given)	–	> 100 µM	–	> 100 µM	–	> 100	–	> 100 µM	–	> 100 µM	–	> 100	–	> 100 µM	–	> 100 µM	–	> 100 µM	–	> 100 µM
O=C1/C(=C/c2ccc(Cl)c(Cl)c2)CN(C(=O)CCN2CCC(=NO)CC2)C/C1=C\c1ccc(Cl)c(Cl)c1	1.31 µM	3.05 µM	574 nM	1.64 µM	545 nM	1.66	1.26 µM	2.53 µM	1320 nM	2.78 µM	1430 nM	5.68	534 nM	1.41 µM	1020 nM	4.04 µM	1.74 µM	3.86 µM	1.85 µM	3.48 µM
Cc1ccc2c(-c3ccnc(Nc4ccc5c(c4)OCCO5)n3)c(-c3ccc(C(F)(F)F)cc3)nn2n1	4.72 µM	> 25 µM	> 23600 nM	> 25 µM	10100 nM	> 25	11.5 µM	> 25 µM	> 25000 nM	> 25 µM	12400 nM	> 25	2760 nM	> 25 µM	5550 nM	> 25 µM	4.21 µM	13.2 µM	3.8 µM	> 25 µM
COc1ccc2c(c1)C(=O)c1c-2c(Nc2ccccc2OC)nc2ccccc12	> 100 µM	> 100 µM	> 100000 nM	> 100 µM	> 100000 nM	> 100	> 100 µM	> 100 µM	> 100000 nM	> 100 µM	> 100000 nM	> 100	> 100000 nM	> 100 µM	> 100000 nM	> 100 µM	> 100 µM	> 100 µM	> 100 µM	> 100 µM
O=C(Nc1cccc(-n2cc(-c3ccncc3)c(-c3cc(O)cc(Cl)c3)n2)c1)c1ccc(N2CCOCC2)c(C(F)(F)F)c1	–	–	7200 nM	> 100 µM	1090 nM	45.6	28.5 µM	> 100 µM	1380 nM	5.19 µM	2940 nM	> 100	5120 nM	> 100 µM	4590 nM	> 100 µM	2.36 µM	8.48 µM	9.63 µM	> 100 µM
Cn1c([N+](=O)[O-])cnc1C=C1C(=O)c2ccccc2C1=O	–	–	4670 nM	14.8 µM	8890 nM	28.5	13.1 µM	47.4 µM	3440 nM	11.6 µM	2430 nM	8.71	3560 nM	18.5 µM	5340 nM	83.9 µM	3.12 µM	14.7 µM	6.32 µM	29.4 µM
O=c1c2ccccc2sc2c(CO)ccc(NCCN3CCCCC3)c12	–	16.6 µM	–	7.71 µM	–	15.1	–	10.6 µM	–	5.2 µM	–	15.9	–	15 µM	–	9.97 µM	–	3.76 µM	–	16.3 µM
O=C1NC(=N[C@@H](CO)c2ccccc2)S/C1=C\c1ccc2ncccc2c1	–	–	14800 nM	> 25 µM	> 25000 nM	> 25	11.7 µM	> 25 µM	13400 nM	> 25 µM	4840 nM	> 25	4710 nM	> 18.3 µM	> 25000 nM	> 25 µM	13.9 µM	> 25 µM	8.1 µM	> 25 µM
COc1cc2c(cc1Nc1nc(N3CCc4ccccc43)c3cc[nH]c3n1)N(C(=O)CN(C)C)CC2	5.11 µM	13.9 µM	2080 nM	4.98 µM	2240 nM	6.43	11.3 µM	20.1 µM	5030 nM	11 µM	4520 nM	11.4	10900 nM	17.1 µM	731 nM	2.81 µM	4.25 µM	9.3 µM	20.5 µM	25 µM
CNC(=O)c1ncccc1Nc1nc(Nc2cc3c(cc2OC)CCCN3C(=O)CN(C)C)nc2[nH]ccc12	1.55 µM	6.52 µM	986 nM	3.39 µM	1500 nM	8.03	1.91 µM	5.78 µM	3650 nM	7.84 µM	1210 nM	5.69	3520 nM	8.66 µM	724 nM	2.74 µM	0.395 µM	4.71 µM	1.67 µM	5.86 µM
CN[C@@H](C)C(=O)N[C@H]1CN(S(=O)(=O)c2cccc(S(=O)(=O)N3CC[C@H]4CC[C@@H](C(=O)NC(c5ccccc5)c5ccccc5)N4C(=O)[C@@H](NC(=O)[C@H](C)NC)C3)c2)CC[C@H]2CC[C@@H](C(=O)NC(c3ccccc3)c3ccccc3)N2C1=O	25.2 µM	> 74 µM	12200 nM	25.2 µM	21500 nM	> 63.3	28.9 µM	> 100 µM	< 10.4 nM	0.0452 µM	18900 nM	47.8	21000 nM	44.5 µM	> 100000 nM	> 100 µM	18 µM	50.2 µM	–	–
CSC1=Nc2c(c(C)c(C)n2COC(CO)CO)C2=NC(=O)CN12	> 100 µM	> 100 µM	> 100000 nM	> 100 µM	> 100000 nM	> 100	> 100 µM	> 100 µM	> 100000 nM	> 100 µM	> 100000 nM	> 100	–	–	> 100000 nM	> 100 µM	> 100 µM	> 100 µM	> 100 µM	> 100 µM
CCN1C(=S)N(CC)C2C1NC(=S)N2/N=C/C=C/c1ccccc1OC (stereo not given)	0.4 µM	> 100 µM	174 nM	0.64 µM	290 nM	> 100	0.903 µM	> 39.3 µM	736 nM	63 µM	322 nM	> 100	506 nM	> 100 µM	237 nM	–	21.8 µM	> 100 µM	0.505 µM	> 100 µM
Cc1nn(-c2ccc(Cl)cc2)c2ncnc(N/N=C/c3ccccc3O)c12	0.96 µM and 0.993 µM	30.8 µM and > 100 µM	380 nM and 278 nM	19.7 µM and 29.4 µM	1090 nM and 568 nM	> 100	3.86 µM and 2.55 µM	40.7 µM and > 29.5 µM	1190 nM and 508 nM	9.56 µM and 7.85 µM	4120 nM and 2120 nM	> 88.1	534 nM and 485 nM	10.5 µM and 8.48 µM	372 nM and 356 nM	16.9 µM and 17.4 µM	2.68 µM and 1.31 µM	16.1 µM and 39.3 µM	0.615 µM and 0.427 µM	26.5 µM and 10.8 µM
N#CC1c2ccccc2C=CN1C(=O)CCCl (stereo not given)	–	–	2510 nM	6.1 µM	14100 nM	28.5	17.6 µM	54.9 µM	2000 nM	4.01 µM	17400 nM	47.3	6680 nM	13.8 µM	23000 nM	66.3 µM	13.1 µM	26.5 µM	17.2 µM	31.3 µM
